Tests used:
Assay type in all cases: cell-based
[1] = target: EP2 subtype of the human PGE2 receptor (Homo sapiens, UniProt P43116); assay: cAMP antagonism test on the human EP2 receptor (HTRF cAMP detection); conditions: hEP2 receptor, read-out: Antagonism hEP2 IC50
Excerpt: 1. Detection of Antagonism to the Human Prostaglandin E2 (Subtype EP2) Receptor Signal
(§1) The binding of PGE2 to the EP2 subtype of the human PGE2 receptor induces the activation of membrane-located adenylate cyclases and leads to the formation of cAMP. In the presence of the phosphodiesterase inhibitor IBMX, the cAMP accumulated owing to this stimulation and released by cell lysis is used in a competitive detection method. In this test, the cAMP present in the lysate competes with a fluorescence-labelled cAMP (cAMP-d2) for binding to an Eu cryptate-labelled anti-cAMP antibody.
(§2) In the absence of cellular cAMP, a maximal signal is produced, which is attributable to the binding of this cAMP-d2 molecule to the antibody. After excitation of the […] at 337 nm, there is a fluorescence resonance energy transfer (FRET) to the Eu cryptate molecules of the anti-cAMP antibody (labelled therewith), followed by a long-lasting emission signal at 665 nm (and at […]). Both signals are measured in a suitable measurement instrument with a time delay, i.e. after decay of the background fluorescence. Any increase in the low FRET signal caused by prostaglandin E2 administration (measured as well ratio change=emission665 nm/emission620 nm*10000) indicates the action of antagonists.
1.2.1. Test for Antagonism (Data Per Well of a 384-Well Plate):
(§3) To a test plate with the substance solutions already added (0.05 μl; 100% DMSO, concentration range from 0.8 nM-16.5 μM) were added 4 μl of a cAMP-d2/cell suspension (625000 cells/ml). After a 20-minute preincubation at room temperature (RT), 2 μl of a 3×PGE2 solution (1.5 nM, in PBS-IBMX) were added and incubated in the presence of the agonist for a further 60 mins at RT (volume: ˜6 μl). Next the reaction was stopped by addition of 2 μl of lysis buffer and incubated for a further 20 mins at RT before the actual measurement (volume: ˜8 μl).

[2] = target: EP4 subtype of the human PGE2 receptor (Homo sapiens, UniProt P35408); assay: cAMP antagonism test on the human EP4 receptor (HTRF cAMP detection); conditions: selectivity towards hEP4, IC50 measured by cAMP antagonism test
Excerpt: 2. Detection of Antagonism to the Human Prostaglandin E2 (Subtype EP4) Receptor Signal
as §1, with “EP4” for “EP2”
as §2, with “cAMP” for “cAMP,”
2.2.1. Test for Antagonism (Data Per Well of a 384-Well Plate):
as §3, with “(312500” for “(625000”, “(0.3” for “(1.5”

[3] = target: T1, human PGD receptor (Homo sapiens, UniProt Q13258); assay: cAMP antagonism test on the human prostaglandin D receptor (HTRF cAMP detection); conditions: selectivity towards hDP, IC50 measured by cAMP antagonism test
T1 sequence (Q13258 1-359): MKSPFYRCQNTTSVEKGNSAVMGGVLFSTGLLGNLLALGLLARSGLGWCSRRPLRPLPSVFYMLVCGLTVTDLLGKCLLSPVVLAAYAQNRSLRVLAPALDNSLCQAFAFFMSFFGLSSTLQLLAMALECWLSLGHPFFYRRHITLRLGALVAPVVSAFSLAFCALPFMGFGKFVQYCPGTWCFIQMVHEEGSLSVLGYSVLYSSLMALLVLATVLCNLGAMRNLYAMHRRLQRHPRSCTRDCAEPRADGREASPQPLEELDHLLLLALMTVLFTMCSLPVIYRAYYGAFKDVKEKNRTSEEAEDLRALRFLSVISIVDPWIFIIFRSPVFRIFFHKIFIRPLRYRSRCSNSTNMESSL
Excerpt: 3. Detection of Antagonism to the Human Prostaglandin D Receptor Signal
as §1, with “of prostaglandin D2” for “of PGE2”, “the” for “the EP2 subtype of the”, “human PGD” for “human PGE2”
as §2
3.2.1. Test for Antagonism (Data Per Well of a 384-Well Plate):
as §3, with “3×PGD2” for “3×PGE2”, “(6” for “(1.5”, “30” for “60”

EP2 subtype of the human PGE2 receptor, sequence (P43116 whole entry): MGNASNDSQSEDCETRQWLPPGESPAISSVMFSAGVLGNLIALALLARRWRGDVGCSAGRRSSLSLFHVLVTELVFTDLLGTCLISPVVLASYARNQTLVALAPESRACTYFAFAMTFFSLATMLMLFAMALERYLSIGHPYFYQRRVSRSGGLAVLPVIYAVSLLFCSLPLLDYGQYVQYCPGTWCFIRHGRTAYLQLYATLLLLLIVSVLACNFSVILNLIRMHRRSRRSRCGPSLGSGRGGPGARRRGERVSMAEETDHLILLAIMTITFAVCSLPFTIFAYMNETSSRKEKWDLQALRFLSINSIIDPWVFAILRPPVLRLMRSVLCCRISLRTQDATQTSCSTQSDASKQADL
EP4 subtype of the human PGE2 receptor, sequence (P35408 whole entry): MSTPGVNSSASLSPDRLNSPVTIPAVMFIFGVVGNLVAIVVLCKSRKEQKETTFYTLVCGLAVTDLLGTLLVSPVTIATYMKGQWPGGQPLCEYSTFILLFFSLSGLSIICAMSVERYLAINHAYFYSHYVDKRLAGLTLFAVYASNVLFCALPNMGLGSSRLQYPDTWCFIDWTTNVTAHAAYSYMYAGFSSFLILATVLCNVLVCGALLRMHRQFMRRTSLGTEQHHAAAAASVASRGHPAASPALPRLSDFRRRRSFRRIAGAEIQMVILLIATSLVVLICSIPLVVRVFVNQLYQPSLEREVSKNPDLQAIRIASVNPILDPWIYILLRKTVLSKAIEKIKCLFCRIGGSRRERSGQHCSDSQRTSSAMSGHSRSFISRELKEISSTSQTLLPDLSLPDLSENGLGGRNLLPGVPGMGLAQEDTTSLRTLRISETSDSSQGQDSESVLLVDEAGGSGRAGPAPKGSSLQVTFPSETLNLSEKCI

| IC50 [1] [nM] | Selectivity hEP2/hEP4 [2] | Selectivity hEP2/hDP [3] | Compound |
| --- | --- | --- | --- |
| 57.4 | xxx (xxx > 100) | xxx (xxx > 100) | COC(C)CNC(=O)c1ccc2nn(CC3CN(C(=O)c4ccc(Oc5ccc(F)cc5)cc4)C3)cc2c1C (racemic) [Example 147, (+/−)-2-({1-[4-(4-fluorophenoxy)benzoyl]azetidin-3-yl}methyl)-N-(2-methoxypropyl)-4-methyl-2H-indazol-5-carboxamide] |
| 27.4 | xxx (xxx > 100) | xxx (xxx > 100) | Cc1c(C(=O)NCC2COCCO2)ccc2nn(CC3CN(C(=O)c4ccc(Oc5ccc(F)cc5)cc4)C3)cc12 (racemic) [Example 148, (+/−)-N-(1,4-dioxan-2-ylmethyl)-2-({1-[4-(4-fluorophenoxy)benzoyl]azetidin-3-yl}methyl)-4-methyl-2H-indazol-5-carboxamide] |
| 80.8 | xxx (xxx > 100) | xxx (xxx > 100) | Cc1c(C(=O)NCC(C)OC2CCC2)ccc2nn(CC3CN(C(=O)c4ccc(Cl)cc4)C3)cc12 (racemic) [Example 154, (+/−)-2-{[1-(4-chlorobenzoyl)azetidin-3-yl]methyl}-N-[2-(cyclobutyloxy)propyl]-4-methyl-2H-indazol-5-carboxamide] |
| 47.1 | xxx (xxx > 100) | xxx (xxx > 100) | Cc1cc2nn(CC3CN(C(=O)c4ccc(Cl)cc4)C3)cc2cc1C(=O)NCC1CCCCO1 (racemic) [Example 191, (+/−)-2-{[1-(4-chlorobenzoyl)azetidin-3-yl]methyl}-6-methyl-N-(3,4,5,6-tetrahydro-2H-pyran-2-ylmethyl)-2H-indazol-5-carboxamide] |
| 206 | xx (xx: 10-100) | xx (xx: 10-100) | COC(C)CNC(=O)c1cc2cn(CC3CN(C(=O)c4ccc(Cl)cc4)C3)nc2cc1C (racemic) [Example 192, (+/−)-2-{[1-(4-chlorobenzoyl)azetidin-3-yl]methyl}-N-(2-methoxypropyl)-6-methyl-2H-indazol-5-carboxamide] |
| 145 | xxx (xxx > 100) | xxx (xxx > 100) | COC(C)CNC(=O)c1cc2cn(CC3CN(C(=O)c4ccc(OC(F)(F)F)cc4)C3)nc2cc1C (racemic) [Example 193, (+/−)-N-(2-methoxypropyl)-6-methyl-2-({1-[4-(trifluoromethoxy)benzoyl]-azetidin-3-yl}methyl)-2H-indazol-5-carboxamide] |
| 27 | xxx (xxx > 100) | xxx (xxx > 100) | Cc1c(C(=O)NCC2CCCCO2)ccc2nn(CC3CCN(C(=O)c4ccc(Cl)cc4)CC3)cc12 (racemic) [Example 239, (+/−)-2-{[1-(4-chlorobenzoyl)piperidin-4-yl]methyl}-4-methyl-N-(3,4,5,6-tetrahydro-2H-pyran-2-ylmethyl)-2H-indazol-5-carboxamide] |
| 14.7 | xxx (xxx > 100) | xxx (xxx > 100) | Cc1c(C(=O)NCC2CCCCO2)ccc2nn(CC3CCN(C(=O)c4ccc(Oc5ccc(C(F)(F)F)cc5)cc4)CC3)cc12 (racemic) [Example 248, (+/−)-4-methyl-N-(3,4,5,6-tetrahydro-2H-pyran-2-ylmethyl)-2-[(1-{4-[4-(trifluoromethyl)phenoxy]benzoyl}piperidin-4-yl)methyl]-2H-indazol-5-carboxamide] |
| 11.2 | xxx (xxx > 100) | xxx (xxx > 100) | Cc1c(C(=O)NCC2COCCO2)ccc2nn(CC3CCN(C(=O)c4ccc(Oc5ccc(C(F)(F)F)cc5)cc4)CC3)cc12 (racemic) [Example 249, (+/−)-N-(1,4-dioxan-2-ylmethyl)-4-methyl-2-[(1-{4-[4-(trifluoromethyl)phenoxy]benzoyl}piperidin-4-yl)methyl]-2H-indazol-5-carboxamide] |
| 16.5 | xxx (xxx > 100) | xxx (xxx > 100) | Cc1c(C(=O)NCC2COCCO2)ccc2nn(CC3CCN(C(=O)c4ccc(-c5ccc(F)cc5)cc4)CC3)cc12 (racemic) [Example 411, (+/−)-N-(1,4-dioxan-2-ylmethyl)-2-({1-[(4′-fluorobiphenyl-4-yl)carbonyl]-piperidin-4-yl}methyl)-4-methyl-2H-indazol-5-carboxamide] |
| 63.5 | xxx (xxx > 100) | xxx (xxx > 100) | Cc1c(C(=O)NCC2CCO2)ccc2nn(CC3CCN(C(=O)c4ccc(Cl)cc4)CC3)cc12 (racemic) [Example 412, (+/−)-2-{[1-(4-chlorobenzoyl)piperidin-4-yl]methyl}-4-methyl-N-(oxetan-2-ylmethyl)-2H-indazol-5-carboxamide] |
| 37.8 | xxx (xxx > 100) | xxx (xxx > 100) | Cc1c(C(=O)NCC2COCCO2)ccc2nn(CC3CCN(C(=O)c4ccc(Cl)cc4)CC3)cc12 (racemic) [Example 413, (+/−)-2-{[1-(4-chlorobenzoyl)piperidin-4-yl]methyl}-N-(1,4-dioxan-2-ylmethyl)-4-methyl-2H-indazol-5-carboxamide] |
| 419 | xx (xx: 10-100) | xx (xx: 10-100) | COC(C)CNC(=O)c1ccc2nn(CC3CN(C(=O)c4ccc(Cl)cc4)C3)cc2c1C (single isomer, unassigned) [Example 139, (R or S)-2-{[1-(4-chlorobenzoyl)azetidin-3-yl]methyl}-N-(2-methoxypropyl)-4-methyl-2H-indazol-5-carboxamide] |
